The values that follow come from ChEMBL document CHEMBL2331133, “Inhibitory effect on NO production of triterpenes from the fruiting bodies of Ganoderma lucidum” (Bioorg Med Chem Lett, 2013).

The test system of series [1] is RAW264.7. The experiment in a line: Cytotoxicity against LPS-stimulated mouse RAW264.7 cells assessed as cell viability at 50 uM after 24 hrs by MTT assay. The class given is cell-based. The note with it: raw264.7, 24 h.
The test system of series [2] is RAW264.7. The experiment in a line: Cytotoxicity against mouse RAW264.7 cells assessed as cell viability at 50 uM after 24 hrs by MTT assay. The class given is cell-based. To be noted: for Activity: mouse, raw264.7, 24 h, 50 µM.
The subject of series [3] is RAW264.7. Put plainly: Antiinflammatory activity in mouse RAW264.7 cells assessed as inhibition of LPS-induced nitric oxide production by Griess reaction method. The class given is functional, cell-based.
Series [4] has as its system RAW264.7. The experiment in a line: Inhibition of LPS-induced iNOS expression in mouse RAW264.7 cells treated 30 mins before LPS challenge measured after 18 hrs by immunoblot analysis. The class given is functional, cell-based. In general terms: A western blot detects proteins with antibodies after separation by electrophoresis.
Series [5] has as its system RAW264.7. Put plainly: Inhibition of LPS-induced COX-2 expression in mouse RAW264.7 cells at 1 to 30 uM treated 30 mins before LPS challenge measured after 18 hrs by immunoblot analysis. The class given is functional, cell-based.

Activity calls are given as the source filed them. The rule behind the calls is not given here.

Consider `C[C@H](CC[C@@H](O)C(C)(C)O)[C@H]1CC[C@@]2(C)C3=CC[C@H]4C(C)(C)C(=O)CC[C@]4(C)C3=CC[C@]12C` [GANODERMANONDIOL], for which the Activity result in the series with RAW264.7 [1] and in the series on RAW264.7 [2] was “Non-toxic” in each case.

For `CC(C)[C@@H](C)/C=C/[C@@H](C)[C@H]1CC[C@H]2C3=CC[C@H]4C[C@@H](O)CC[C@]4(C)[C@H]3CC[C@]12C`, the Activity result in the series with RAW264.7 [1] and in the series on RAW264.7 [2] was “Non-toxic” each time.

As for `COC(=O)C(C)CC(=O)C[C@@H](C)[C@H]1CC(=O)[C@@]2(C)C3=C(C(=O)[C@@H](OC(C)=O)[C@]12C)[C@@]1(C)CC[C@H](O)C(C)(C)[C@@H]1CC3=O` (stereo partly specified) [METHYL GANODERATE H], the Activity result with RAW264.7 [1] and in the series with RAW264.7 [2] was “Non-toxic” each time.

Turning to `CCCCOC(=O)CC[C@@H](C)[C@H]1CC(=O)[C@@]2(C)C3=C(C(=O)[C@@H](OC(C)=O)[C@]12C)[C@@]1(C)CCC(=O)C(C)(C)[C@@H]1CC3=O` [BUTYL LUCIDENATE D2], the Activity result with RAW264.7 [1] and in the series with RAW264.7 [2] was “Non-toxic” in each case. Also, the IC50 (usually the concentration that inhibits the measured activity by half) with RAW264.7 [3] turned out to be 35 µM.

With `CCCCOC(=O)CC[C@@H](C)[C@H]1CC(=O)[C@@]2(C)C3=C(C(=O)[C@@H](OC(C)=O)[C@]12C)[C@@]1(C)CC[C@H](O)C(C)(C)[C@@H]1CC3=O` [BUTYL LUCIDENATE E2], the Activity entry in the series on RAW264.7 [1] and in the series on RAW264.7 [2] was “Non-toxic” in each case. The inhibition entry in the series on RAW264.7 [4] is “Dose-dependent effect”. Moreover, in the series on RAW264.7 [3], the IC50 worked out at 6.4 µM. The inhibition entry in the series with RAW264.7 [5] is “Active”.

Regarding `CCCCOC(=O)CC[C@@H](C)[C@H]1CC(=O)[C@@]2(C)C3=C(C(=O)[C@@H](OC(C)=O)[C@]12C)[C@@]1(C)CC[C@H](O)C(C)(C)[C@@H]1C[C@@H]3O` [BUTYL LUCIDENATE P], the Activity result in the series on RAW264.7 [1] and in the series on RAW264.7 [2] was “Non-toxic” each time. Further, the inhibition entry in the series with RAW264.7 [4] is “Dose-dependent effect”. The IC50 in the series with RAW264.7 [3] came out at 7.4 µM. For the same compound, the inhibition entry in the series with RAW264.7 [5] was “Active”.

Turning to `CCCCOC(=O)CC[C@@H](C)[C@H]1CC(=O)[C@@]2(C)C3=C(C(=O)C[C@]12C)[C@@]1(C)CC[C@H](O)C(C)(C)[C@@H]1C[C@@H]3O` [BUTYL LUCIDENATE N], the Activity result in the series with RAW264.7 [1] and in the series with RAW264.7 [2] was “Non-toxic” throughout. Besides, in the series with RAW264.7 [4], the inhibition result is “Dose-dependent effect”. Besides, the IC50 in the series with RAW264.7 [3] came out at 4.5 µM. For the same compound, the inhibition result in the series with RAW264.7 [5] was “Active”.

On to `CC(C)[C@@H](C)/C=C/[C@@H](C)[C@H]1CC[C@@H]2[C@]1(C)CC[C@H]1[C@]23C=C[C@]2(C[C@@H](O)CC[C@]12C)OO3` [ERGOSTEROL PEROXIDE], for which the Activity result in the series with RAW264.7 [1] and with RAW264.7 [2] was “Non-toxic” throughout. Moreover, the IC50 with RAW264.7 [3] turned out to be 9.4 µM.

For the compound `C[C@H](CCC=C(CO)CO)[C@H]1CC[C@@]2(C)C3=CC[C@H]4C(C)(C)C(=O)CC[C@]4(C)C3=CC[C@]12C` [GANODERIOL F], the Activity entry in the series on RAW264.7 [1] and in the series with RAW264.7 [2] was “Non-toxic” each time. In addition, in the series on RAW264.7 [3], the IC50 was determined as 36 µM.

In the case of `CC(C)[C@@H](C)/C=C/[C@@H](C)[C@H]1CC[C@H]2C3=CC=C4C[C@@H](O)CC[C@]4(C)[C@H]3CC[C@]12C` [ERGOSTEROL], the Activity result in the series with RAW264.7 [1] and in the series with RAW264.7 [2] was “Non-toxic” each time.

For `CCCCOC(=O)CC[C@@H](C)[C@H]1C[C@H](O)[C@@]2(C)C3=C(C(=O)C[C@]12C)[C@@]1(C)CCC(=O)C(C)(C)[C@@H]1C[C@@H]3O` [LUCIDENATE Q], the IC50 in the series on RAW264.7 [3] was 4.3 µM; with RAW264.7 [2] (Mus musculus, RAW264.7, 24 h) it was 14 µM.

Turning to `COC(=O)CC[C@@H](C)[C@H]1CC(=O)[C@@]2(C)C3=C(C(=O)C[C@]12C)[C@@]1(C)CC[C@H](O)C(C)(C)[C@@H]1C[C@@H]3O` [METHYL LUCIDENATE N], the Activity result with RAW264.7 [1] and with RAW264.7 [2] was “Non-toxic” each time.

Regarding `COC(=O)CC[C@@H](C)[C@H]1CC(=O)[C@@]2(C)C3=C(C(=O)C[C@]12C)[C@@]1(C)CCC(=O)C(C)(C)[C@@H]1C[C@@H]3O` [METHYL LUCIDENATE A], the Activity result in the series with RAW264.7 [1] and with RAW264.7 [2] was “Non-toxic” in each case.

In the case of `COC(=O)C(C)CC(=O)C[C@@H](C)[C@H]1C[C@H](O)[C@@]2(C)C3=C(C(=O)C[C@]12C)[C@@]1(C)CCC(=O)C(C)(C)[C@@H]1CC3=O` (stereo partly specified) [METHYL GANODERATE J], the Activity result with RAW264.7 [1] and in the series on RAW264.7 [2] was “Non-toxic” throughout. In addition, the concentration for half-maximal inhibition (IC50) in the series on RAW264.7 [3] turned out to be 9.2 µM.
